Measured values taken from patent publication US8173169B2, “Formulation and process for the preparation of modafinil” (Hikma Pharmaceuticals, priority 2007, dated 2012).
Values joined by “and” are separate entries in the source; they are usually repeats but may differ in a detail not shown here. Equal entries are not always repeated.

Assays:
Format in all cases: physicochemical
[1] = Particle size analysis by laser diffraction (Malvern Mastersizer 2000)
From the text: As is appreciated by those in the art, different measurement instruments may provide different measurements of the same particles. […] Applicants have therefore performed modafinil particle size analysis using a Malvern Mastersizer 2000 (Worcestershire, UK), and a Coulter Counter (Hiac/Royco instruments, USA) and mechanical sieving methods.
Malvern Mastersizer utilizes the principle of laser diffraction particle sizing. The principle involved is that during the laser diffraction measurement, particles are passed through a focused laser beam and these particles scatter light at an angle that is inversely proportional to their size. The angular intensity of the scattered light is then measured by a series of photosensitive detectors and the map of scattering intensity versus angle is the primary source of information used to calculate the particle size.
Particle size measurements using the Hiac/Royco were generated on Modafinil particles of the present invention suspended in saturated water. For Malvern laser sizing, Modafinil particles can either be suspended in sunflower oil or sized in the dry form.
(§1) Tables 1 and 2 summarize the particle size distribution of modafinil particles B#62605008s obtained by two different sizing methods. Values are reported in microns. The term d (0.1) denotes the diameter of the largest particle found in 10% of the particles sorted in increasing order. The other four terms refer to the diameter of the largest particle found in each 50%, 85%, 90% and 95% of the particles. The term SD denotes the standard deviation and is a measure of the spread of its values and the term RSD refers to the absolute value of the coefficient variation expressed as a percentage. In Table 2 the percentage by weight of particles retained on each mesh cut is reported.

[2] = Sieve analysis of particle size distribution; details: by weight retained
From the text: In using the Coulter Counter, particles suspended in a weak electrolyte solution are drawn through a small aperture, separating two electrodes between which an electric current flows. The voltage applied across the aperture creates a “sensing zone”. As particles pass through the aperture, they displace their own volume of electrolyte, momentarily increasing the impedance of the aperture. This change in impedance produces a pulse that is digitally processed in real time. The Coulter Principle states that the pulse is directly proportional to the tri-dimensional volume of the particle that produced it. […] Sieve sizing is one of the oldest methods used to determine particle size distributions. Samples of known weight are placed on the largest sieve in a stack of sieves of decreasing size. Upon shaking, sample fractions are caught on the respective sieve corresponding to the size of the particles.
Table 2 summarizes particle size distribution of Modafinil of the present invention measured by sieve size analysis.
as §1

[3] = Dissolution rates of modafinil prepared by different formulation processes
From the text: The choice of excipient is also shown to have a significant influence on the dissolution profiles.

[4] = single trials 1-3, Malvern Mastersizer 2000

NC(=O)C[S+]([O-])C(c1ccccc1)c1ccccc1 (stereo not shown) [Modafinil B# 62605008s, Modafinil]
D (0.35) particle size (% undersize) ([1]; average of 3 trials): 267.3 microns | d (0.1) particle size (% undersize) ([1]; average of 3 trials): 161.37 microns | d (0.5) particle size (% undersize) ([1]; average of 3 trials): 322.59 microns | d (0.85) particle size (% undersize) ([1]; average of 3 trials): 506.71 microns | d (0.9) particle size (% undersize) ([1]; average of 3 trials): 557.46 microns | d (0.95) particle size (% undersize) ([1]; average of 3 trials): 631.82 microns | share of particles greater than 220 um ([1]; conclusion from two sizing methods (Tables 1 and 2)): at least 65% | D (0.35) particle size (% undersize) [1, 4]: 273.94 microns and 266.93 microns and 261.04 microns | d (0.1) particle size (% undersize) [1, 4]: 172.45 microns and 159.38 microns and 152.26 microns | d (0.5) particle size (% undersize) [1, 4]: 328.58 microns and 322.53 microns and 316.66 microns | d (0.85) particle size (% undersize) [1, 4]: 510.24 microns and 507.09 microns and 502.79 microns | d (0.9) particle size (% undersize) [1, 4]: 561.92 microns and 558.30 microns and 552.16 microns | d (0.95) particle size (% undersize) [1, 4]: 633.06 microns and 632.46 microns and 629.94 microns | % Oversize ([2]; particle size range 0-150 μm): 3.51% | % Oversize ([2]; particle size range 150-180 μm): 1.25% | % Oversize ([2]; particle size range 180-250 μm): 7.02% | % Oversize ([2]; particle size range 250-355 μm): 52.88% | % Oversize ([2]; particle size range 355-425 μm): 17.04% | % Oversize ([2]; particle size range 425-500 μm): 12.78% | % Oversize ([2]; particle size range 500-600 μm): 5.26% | % Oversize ([2]; particle size range 600-800 μm): 0.25% | % Oversize ([2]; particle size range >800 μm): 0.00%

NC(=O)C[S+]([O-])C(c1ccccc1)c1ccccc1 (stereo not shown) [Modafinil particles, Modafinil]
% Modafinil Dissolved ([3]; 5 mins): 1.80% | % Modafinil Dissolved ([3]; 10 mins): 5.19% | % Modafinil Dissolved ([3]; 15 mins): 9.73% | % Modafinil Dissolved ([3]; 20 mins): 14.31% | % Modafinil Dissolved ([3]; 30 mins): 23.19% | % Modafinil Dissolved ([3]; 40 mins): 31.25% | % Modafinil Dissolved ([3]; 60 mins): 44.09% | % Modafinil Dissolved ([3]; 90 mins): 71.42% | dissolution profile compared with PROVIGIL 200 ([3]; result in words): significantly slower
